Data published in patent publication US20140024683A1, “CHLORIDE CHANNEL AND CHLORIDE TRANSPORTER MODULATORS FOR THERAPY IN SMOOTH MUSCLE DISEASES” (priority 2011, published 2014).

What was measured:
[1] = system: human airway smooth muscle strips; test: Organ bath force, acetylcholine-induced contractions of human airway smooth muscle strips after pretreatment; details: 100 μM, separate blockade (alone)
Method: Human muscle tissue was acquired from excess lung airways trimmed during surgery from healthy lung transplant donors. Acquired tissue was stored overnight at 20° C. Airway smooth muscle contractions measured ex vivo in organ baths were performed as previously described (Gallos et al., 2008; Gallos et al., 2009, Gallos et al., 2011; Gleason et al., 2010; Yim et al., 2011; Mitzuta et al., 2008). Closed guinea pig tracheal rings or strips of human airway smooth muscle (tracheal or main stem bronchus) were suspended in organ baths, which had 95% oxygen constantly perfusing through Dulbecco's Modified Eagle Medium. Rings were cut on the cartilaginous borders of the smooth muscle. The epithelial layer was dissected under microscopic assistance. […]
Following equilibration, in guinea pig experiments, the capsaicin analog N-vanillylnonanamide (10 μM final) was added to the organ baths to first activate and then deplete nonadrenergic, noncholinergic nerves. […] To avoid bias between treatment groups, tissues were contracted to individually calculated EC50 values for acetylcholine and tissues with similar Emax values were randomly assigned to treatments within individual experiments. […]

[2] = system: human airway smooth muscle cells; test: MQAE fluorescence assay of intracellular chloride; type: cell-based
Method: To determine whether blockade of CaCCs or NKCCs induce changes in intracellular chloride concentrations in human airway smooth muscle cells, the MQAE in vitro fluorescent dye assay (Invitrogen) was used. Briefly, human airway smooth muscle cells were grown to 100% confluence in 96-well black-walled plates. Cells were loaded overnight with 10 mM MQAE in serum-free basal cell culture medium (M199, Invitrogen) and were washed once with warmed (37° C.) normal-chloride buffer [consisting of (in mM) 130 sodium chloride, 2 CaCl2, 1 MgCl2, 10 D-glucose, and 10 HEPES, pH 7.4]. […] An increase in fluorescence represents decreased intracellular chloride (removal of halide quenching of MQAE) while decreased fluorescence represents increased intracellular chloride (enhanced halide quenching of MQAE).

[3] = system: human airway smooth muscle cells; test: FLIPR membrane potentiometric dye assay (Example 21); type: cell-based
Method: Immortalized airway smooth muscle cell lines modified to stably express human telomerase reverse transcriptase were a kind gift from Dr. William Gerthoffer (University of Southern Alabama, Mobile, Ala.) prepared as described previously (Gosens et al., 2006) and grown in Dulbecco's Modified Eagle's Medium/F12 media (GIBCO, Grand Island, N.Y.), with 10% FBS and antibiotics.
Immortalized human airway smooth muscle cells were cultured on black-walled 96 well plates to 100% confluence, and were washed four times with warmed (37° C.) assay buffer of the following composition (in mM): NaCl 140, KCl 4.7, CaCl2 2.5, MgCl2 1.2, HEPES 11, D-glucose 10. A stock solution (100% dye) of FLIPR blue dye was prepared by reconstitution of 1 vial (125 mg) with 100 ml assay buffer. A 50% working stock was prepared by further diluting the reconstituted blue dye 1:1 with assay buffer and was used to load cells (90 μl/well) over 45 min at 37° C. in a humidified cell culture incubator (95% air/5% CO2). All reagents were dissolved in assay buffer. Fluorescence was measured with a Flex Station 3 (Molecular Devices) using an excitation wavelength of 530 nm, emission wavelength of 565 nm and a cutoff filter of 550 nm. Baseline fluorescence was measured every 2 seconds for 1 minute then for 2 minutes after injection of vehicle or compound of interest as indicated (using the Flexstation's 3 integrated injection capabilities).
Human airway smooth muscle cells were incubated with FLIPR membrane potentiometric dye to assess if the chloride channel blockers changed membrane potential at the cellular level. FLIPR fluorescence will increase with depolarization, and decrease with hyperpolarization. […] Therefore, chloride channel blockade, but not NKCC blockade, hyperpolarized human airway smooth muscle cells.

[4] = system: guinea pig tracheal rings; test: Organ bath muscle force, TEA-induced contraction of guinea pig tracheal rings (Examples 1, 4, 13); details: 10 mM TEA; 100 μM niflumic acid
Method: Epithelial denuded guinea pig tracheal rings were suspended in organ baths under 1 g resting tension with continuous digital recordings of muscle force. In separate studies, guinea pig airway smooth muscle cells were enzymatically dispersed and cultured.
Human muscle tissue was acquired from excess lung airways trimmed during surgery from healthy lung transplant donors. Acquired tissue was stored overnight at […]. Airway smooth muscle contractions measured ex vivo in organ baths were performed as previously described (Gallos et al., 2008; Gallos et al., 2009, Gallos et al., 2011; Gleason et al., 2010; Yim et al., 2011; Mitzuta et al., 2008). Closed guinea pig tracheal rings or strips of human airway smooth muscle (tracheal or main stem bronchus) were suspended in organ baths, which had 95% oxygen constantly perfusing through Dulbecco's Modified Eagle Medium. Rings were cut on the cartilaginous borders of the smooth muscle. The epithelial layer was dissected under microscopic assistance. Briefly, tissues were suspended in a water-jacketed (37° C.) 2-ml organ bath (Radnoti Glass Technology, Monrovia, Calif.) and attached to a Grass FT03 force transducer (Grass Telefactor, West Warwick, R.I.) coupled to a computer via BioPac hardware and Acqknowledge 7.3.3 software (Biopac Systems, Goleta, Calif.). Kreb's-Henseleit (KH) buffer was continuously bubbled with 95% oxygen and 5% carbon dioxide and tissues were allowed to equilibrate at 1 g (guinea pig) or 1.5 g (human) isotonic force for 1 hour with fresh KH buffer changes every 15 minutes.
Following equilibration, in guinea pig experiments, the capsaicin analog N-vanillylnonanamide (10 μM final) was added to the organ baths to first activate and then deplete nonadrenergic, noncholinergic nerves. […]. In experiments with human tissue, no vanillylnonanamide pretreatment was done. To avoid bias between treatment groups, tissues were contracted to individually calculated EC50 values for acetylcholine and tissues with similar Emax values were randomly assigned to treatments within individual experiments. Following extensive KH buffer changes (8-9 times) tissues were allowed to stabilize at isotonic resting tension (about 1.0 g). To remove confounding effects of other procontractile pathways, each bath received a complement of antagonists 20 minutes prior to subsequent contractile challenge. The antagonists included pyrilamine (10 μM; H1 histamine receptor antagonist), and tetrodotoxin (1 μM; blocker of endogenous cholinergic or C-fiber neuronal effects) in guinea pig experiments or pyrilamine and 10 μM MK571 (leukotriene receptor antagonist) in human tissue experiments. […]
Airway smooth muscle contractions measured ex vivo in organ baths were performed as set forth above. […]

Row | SMILES | effect on acetylcholine-induced contraction [1] | intracellular chloride (MQAE fluorescence) ([2]; 10 μM bumetanide) | intracellular chloride (MQAE fluorescence) ([2]; 10 μM bumetanide, listed as Bumetanide) | change in membrane potential (FLIPR) ([3]; 10 μM bumetanide) | intracellular chloride (MQAE fluorescence) ([2]; 100 μM niflumic acid) | membrane potential, continuous fluorescence recording (representative tracing) [3] | change in relative fluorescent units (membrane potential, FLIPR) ([3]; 100 μM, n=12) | relaxation of TEA-induced contraction [4]
1 | CCCCNc1cc(C(=O)O)cc(S(N)(=O)=O)c1Oc1ccccc1 [bumetanide] | does not significantly reduce contraction | impairs chloride entry | decreases [Cl^−]i | did not cause a significant change |  |  |  | 
2 | O=C(O)c1cccnc1Nc1cccc(C(F)(F)F)c1 [niflumic acid] | does not significantly reduce contraction |  |  |  | increases intracellular chloride | hyperpolarize | −254.7+/−37 RFU | 82.5%
